Source: ChEMBL document CHEMBL5465560, “Selectivity Literature for EUbOPEN Chemogenomic Library” (2024)
Blank lines part the entries; values can stand above or below the molecule they belong to.

Experiments:
[1] = target: T1, Serine/threonine-protein kinase Nek8 (Homo sapiens) (UniProt Q86SG6); assay: Selectivity interaction (LanthaScreen Eu Kinase Binding Assay) EUB0001632a NEK8; settings: at 10 µM
T1 sequence (whole entry): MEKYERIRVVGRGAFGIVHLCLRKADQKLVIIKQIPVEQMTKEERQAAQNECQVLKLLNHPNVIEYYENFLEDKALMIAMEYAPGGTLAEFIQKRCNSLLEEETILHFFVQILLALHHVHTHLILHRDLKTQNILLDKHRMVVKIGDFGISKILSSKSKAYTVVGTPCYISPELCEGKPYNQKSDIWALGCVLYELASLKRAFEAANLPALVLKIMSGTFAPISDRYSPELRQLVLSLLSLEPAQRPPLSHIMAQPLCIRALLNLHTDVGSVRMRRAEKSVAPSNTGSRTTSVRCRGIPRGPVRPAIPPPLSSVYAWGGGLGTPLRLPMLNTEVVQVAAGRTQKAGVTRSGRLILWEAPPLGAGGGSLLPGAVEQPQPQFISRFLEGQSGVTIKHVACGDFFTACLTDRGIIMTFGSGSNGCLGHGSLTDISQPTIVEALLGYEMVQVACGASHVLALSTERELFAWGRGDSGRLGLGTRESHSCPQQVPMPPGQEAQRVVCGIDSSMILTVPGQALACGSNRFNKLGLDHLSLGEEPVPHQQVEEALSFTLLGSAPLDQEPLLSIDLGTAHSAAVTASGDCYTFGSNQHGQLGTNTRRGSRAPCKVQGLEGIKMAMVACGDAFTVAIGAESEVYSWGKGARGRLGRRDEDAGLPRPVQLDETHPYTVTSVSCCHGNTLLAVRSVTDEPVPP

[2] = target: T2, cGMP-dependent protein kinase 2 (Homo sapiens) (UniProt Q13237); assay: Selectivity interaction (Kinase panel (Z-LYTE Assay)) EUB0001632a PRKG2; settings: at 10 µM
T2 sequence (whole entry): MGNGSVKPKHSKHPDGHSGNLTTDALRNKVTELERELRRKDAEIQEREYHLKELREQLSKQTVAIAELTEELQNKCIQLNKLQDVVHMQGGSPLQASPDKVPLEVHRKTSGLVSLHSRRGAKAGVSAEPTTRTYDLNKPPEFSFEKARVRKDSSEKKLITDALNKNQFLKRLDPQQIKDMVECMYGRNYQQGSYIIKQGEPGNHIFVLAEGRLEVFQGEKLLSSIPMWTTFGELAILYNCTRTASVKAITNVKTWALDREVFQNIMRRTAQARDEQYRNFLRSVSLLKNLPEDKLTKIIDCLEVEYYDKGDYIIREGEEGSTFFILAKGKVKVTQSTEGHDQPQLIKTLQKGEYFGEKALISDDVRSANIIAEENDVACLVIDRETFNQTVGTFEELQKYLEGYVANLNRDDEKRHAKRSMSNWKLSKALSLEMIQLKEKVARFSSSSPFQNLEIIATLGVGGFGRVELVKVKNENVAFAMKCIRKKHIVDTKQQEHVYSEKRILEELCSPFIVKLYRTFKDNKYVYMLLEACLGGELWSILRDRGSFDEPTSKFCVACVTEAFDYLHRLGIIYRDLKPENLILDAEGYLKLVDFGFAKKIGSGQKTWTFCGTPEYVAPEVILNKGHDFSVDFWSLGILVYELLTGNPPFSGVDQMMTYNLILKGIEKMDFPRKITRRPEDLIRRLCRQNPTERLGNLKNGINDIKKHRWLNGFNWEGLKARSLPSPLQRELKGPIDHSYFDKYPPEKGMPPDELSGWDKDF

[3] = target: Ribosomal protein S6 kinase alpha-6 (Homo sapiens, UniProt Q9UK32); assay: Selectivity interaction (Kinase panel (Z-LYTE Assay)) EUB0001632a RPS6KA6; settings: at 10 µM
[4] = target: Wee1-like protein kinase (Homo sapiens) (UniProt P30291); settings: at 10 µM
[5] = target: Phosphatidylinositol 4-phosphate 5-kinase type-1 gamma (Homo sapiens) (UniProt O60331); assay: Selectivity interaction (ProQinase) EUB0000171b PIP5K1C; settings: at 1 µM
[6] = target: T3, Serine/threonine-protein kinase DCLK3 (Homo sapiens) (UniProt Q9C098); assay: Selectivity interaction (Ambit KINOMEscan and KiNATiv profiling in Jurkat cells) EUB0000090b DCLK3; assay type: cell-based; settings: at 1 µM
T3 sequence (whole entry): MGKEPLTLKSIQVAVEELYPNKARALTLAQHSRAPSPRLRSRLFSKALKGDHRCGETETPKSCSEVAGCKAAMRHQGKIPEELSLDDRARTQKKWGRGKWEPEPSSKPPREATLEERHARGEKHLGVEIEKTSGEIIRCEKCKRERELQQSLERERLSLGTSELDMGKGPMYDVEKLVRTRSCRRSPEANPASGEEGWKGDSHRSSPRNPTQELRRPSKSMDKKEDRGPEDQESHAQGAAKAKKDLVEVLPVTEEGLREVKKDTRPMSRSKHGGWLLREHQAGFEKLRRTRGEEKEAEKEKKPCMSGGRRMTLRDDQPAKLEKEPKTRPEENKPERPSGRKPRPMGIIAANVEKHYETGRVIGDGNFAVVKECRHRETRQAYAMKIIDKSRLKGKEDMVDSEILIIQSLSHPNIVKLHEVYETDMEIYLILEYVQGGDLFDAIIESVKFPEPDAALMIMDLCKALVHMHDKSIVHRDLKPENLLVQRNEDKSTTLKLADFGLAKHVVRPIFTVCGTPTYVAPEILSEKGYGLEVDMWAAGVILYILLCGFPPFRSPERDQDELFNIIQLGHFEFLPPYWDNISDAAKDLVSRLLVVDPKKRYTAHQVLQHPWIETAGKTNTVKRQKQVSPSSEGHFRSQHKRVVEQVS

[7] = target: T2, cGMP-dependent protein kinase 2 (Homo sapiens); assay: Selectivity interaction (KinomeScan (DiscoverX)) EUB0001079a PRKG2; settings: at 1 µM
[8] = target: Homeodomain-interacting protein kinase 1 (Homo sapiens, UniProt Q86Z02); assay: Selectivity interaction (KinomeScan (DiscoverX)) EUB0000092b HIPK1; settings: at 10 µM
[9] = target: Protein kinase C eta type (Homo sapiens) (UniProt P24723); assay: Selectivity interaction (KinomeScan (DiscoverX)) EUB0001619a PRKCH; settings: at 1 µM
Sequence of Protein kinase C eta type (Homo sapiens) (P24723 whole entry): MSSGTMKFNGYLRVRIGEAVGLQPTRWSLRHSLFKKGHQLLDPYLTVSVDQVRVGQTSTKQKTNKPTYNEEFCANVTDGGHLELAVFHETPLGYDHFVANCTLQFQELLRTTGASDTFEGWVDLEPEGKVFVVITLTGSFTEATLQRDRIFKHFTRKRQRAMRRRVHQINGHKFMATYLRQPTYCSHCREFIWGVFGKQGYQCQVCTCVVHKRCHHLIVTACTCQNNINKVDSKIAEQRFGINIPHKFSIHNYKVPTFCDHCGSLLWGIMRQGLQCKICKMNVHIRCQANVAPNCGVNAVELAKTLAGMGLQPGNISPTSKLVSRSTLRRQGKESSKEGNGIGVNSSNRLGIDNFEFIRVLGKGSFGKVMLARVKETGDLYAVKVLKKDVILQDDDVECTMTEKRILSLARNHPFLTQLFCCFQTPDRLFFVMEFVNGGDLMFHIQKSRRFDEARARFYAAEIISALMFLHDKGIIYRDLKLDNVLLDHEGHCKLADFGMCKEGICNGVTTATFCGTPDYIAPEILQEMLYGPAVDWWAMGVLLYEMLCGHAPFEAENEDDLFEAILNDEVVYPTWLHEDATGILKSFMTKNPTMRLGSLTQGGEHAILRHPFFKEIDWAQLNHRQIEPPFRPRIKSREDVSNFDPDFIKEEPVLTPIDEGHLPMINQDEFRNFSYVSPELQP

Sequence of Phosphatidylinositol 4-phosphate 5-kinase type-1 gamma (Homo sapiens) (O60331 whole entry): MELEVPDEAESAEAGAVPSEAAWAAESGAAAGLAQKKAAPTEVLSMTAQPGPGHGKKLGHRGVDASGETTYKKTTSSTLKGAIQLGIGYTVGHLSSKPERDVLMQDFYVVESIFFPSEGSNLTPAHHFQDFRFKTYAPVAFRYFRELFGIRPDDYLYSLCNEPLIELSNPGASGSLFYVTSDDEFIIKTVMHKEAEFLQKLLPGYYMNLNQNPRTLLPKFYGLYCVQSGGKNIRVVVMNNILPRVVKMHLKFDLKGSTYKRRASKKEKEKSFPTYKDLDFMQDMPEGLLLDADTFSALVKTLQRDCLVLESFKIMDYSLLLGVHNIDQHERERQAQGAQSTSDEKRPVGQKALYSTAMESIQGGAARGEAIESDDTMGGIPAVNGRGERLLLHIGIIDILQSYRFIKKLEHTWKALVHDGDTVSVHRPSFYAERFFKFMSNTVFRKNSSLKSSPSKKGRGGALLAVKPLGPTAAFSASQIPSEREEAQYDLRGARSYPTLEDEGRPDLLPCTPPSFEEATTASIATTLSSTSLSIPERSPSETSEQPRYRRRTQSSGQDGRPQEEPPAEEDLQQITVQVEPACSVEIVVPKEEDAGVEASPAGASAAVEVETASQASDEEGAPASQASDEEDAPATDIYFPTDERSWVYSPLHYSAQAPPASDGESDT
Sequence of Ribosomal protein S6 kinase alpha-6 (Q9UK32 whole entry): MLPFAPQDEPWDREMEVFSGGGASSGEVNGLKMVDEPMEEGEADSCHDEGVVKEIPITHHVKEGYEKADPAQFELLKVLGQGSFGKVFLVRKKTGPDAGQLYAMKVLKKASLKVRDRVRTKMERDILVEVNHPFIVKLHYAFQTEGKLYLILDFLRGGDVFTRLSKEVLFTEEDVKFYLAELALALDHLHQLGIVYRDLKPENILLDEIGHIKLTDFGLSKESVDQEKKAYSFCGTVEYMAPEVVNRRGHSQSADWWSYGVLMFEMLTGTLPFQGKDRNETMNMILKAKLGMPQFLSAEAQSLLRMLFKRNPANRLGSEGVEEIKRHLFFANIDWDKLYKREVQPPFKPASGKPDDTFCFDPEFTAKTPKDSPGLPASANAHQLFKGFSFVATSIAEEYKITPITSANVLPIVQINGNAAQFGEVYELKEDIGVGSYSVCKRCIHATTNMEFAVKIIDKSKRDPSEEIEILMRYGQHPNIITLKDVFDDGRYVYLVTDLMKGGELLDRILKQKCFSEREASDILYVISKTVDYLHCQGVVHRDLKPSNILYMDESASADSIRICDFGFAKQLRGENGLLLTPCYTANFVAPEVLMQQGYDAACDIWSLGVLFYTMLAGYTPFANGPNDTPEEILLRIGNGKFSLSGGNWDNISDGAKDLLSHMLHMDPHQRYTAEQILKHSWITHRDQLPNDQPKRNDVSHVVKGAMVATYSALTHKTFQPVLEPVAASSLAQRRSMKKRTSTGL
Sequence of Homeodomain-interacting protein kinase 1 (Q86Z02 whole entry, looked up): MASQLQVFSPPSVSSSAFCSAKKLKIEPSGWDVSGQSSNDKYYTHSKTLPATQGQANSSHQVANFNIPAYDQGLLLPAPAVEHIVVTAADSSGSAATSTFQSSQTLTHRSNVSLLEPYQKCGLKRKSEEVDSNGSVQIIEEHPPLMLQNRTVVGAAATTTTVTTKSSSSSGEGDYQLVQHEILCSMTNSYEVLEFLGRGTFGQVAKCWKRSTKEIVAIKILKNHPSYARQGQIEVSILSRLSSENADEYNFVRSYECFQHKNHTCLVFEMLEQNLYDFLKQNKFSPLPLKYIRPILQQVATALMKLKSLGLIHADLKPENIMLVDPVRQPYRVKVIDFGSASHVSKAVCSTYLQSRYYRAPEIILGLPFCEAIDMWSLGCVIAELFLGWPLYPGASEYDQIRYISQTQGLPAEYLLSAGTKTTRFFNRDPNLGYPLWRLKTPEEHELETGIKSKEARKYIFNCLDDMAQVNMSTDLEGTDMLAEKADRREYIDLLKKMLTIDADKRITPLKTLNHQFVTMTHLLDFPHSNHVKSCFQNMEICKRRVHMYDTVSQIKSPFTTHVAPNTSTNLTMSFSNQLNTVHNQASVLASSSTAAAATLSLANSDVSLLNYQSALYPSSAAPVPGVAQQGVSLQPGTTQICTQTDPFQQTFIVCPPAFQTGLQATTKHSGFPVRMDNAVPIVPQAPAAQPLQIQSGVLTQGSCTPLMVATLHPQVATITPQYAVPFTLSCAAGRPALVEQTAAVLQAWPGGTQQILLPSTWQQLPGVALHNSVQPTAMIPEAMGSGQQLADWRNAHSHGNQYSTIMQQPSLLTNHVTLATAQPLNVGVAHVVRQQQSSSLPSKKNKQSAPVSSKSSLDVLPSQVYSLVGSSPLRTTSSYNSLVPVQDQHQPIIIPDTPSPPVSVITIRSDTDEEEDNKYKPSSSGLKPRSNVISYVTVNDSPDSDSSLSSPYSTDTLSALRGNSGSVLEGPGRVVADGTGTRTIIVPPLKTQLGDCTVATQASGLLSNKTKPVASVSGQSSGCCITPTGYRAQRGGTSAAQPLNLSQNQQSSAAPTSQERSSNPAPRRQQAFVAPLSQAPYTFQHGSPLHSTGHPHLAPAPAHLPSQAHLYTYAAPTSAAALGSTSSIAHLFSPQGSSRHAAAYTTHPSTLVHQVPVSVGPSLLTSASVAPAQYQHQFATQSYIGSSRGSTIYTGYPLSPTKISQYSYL
Sequence of Wee1-like protein kinase (Homo sapiens) (P30291 whole entry, looked up): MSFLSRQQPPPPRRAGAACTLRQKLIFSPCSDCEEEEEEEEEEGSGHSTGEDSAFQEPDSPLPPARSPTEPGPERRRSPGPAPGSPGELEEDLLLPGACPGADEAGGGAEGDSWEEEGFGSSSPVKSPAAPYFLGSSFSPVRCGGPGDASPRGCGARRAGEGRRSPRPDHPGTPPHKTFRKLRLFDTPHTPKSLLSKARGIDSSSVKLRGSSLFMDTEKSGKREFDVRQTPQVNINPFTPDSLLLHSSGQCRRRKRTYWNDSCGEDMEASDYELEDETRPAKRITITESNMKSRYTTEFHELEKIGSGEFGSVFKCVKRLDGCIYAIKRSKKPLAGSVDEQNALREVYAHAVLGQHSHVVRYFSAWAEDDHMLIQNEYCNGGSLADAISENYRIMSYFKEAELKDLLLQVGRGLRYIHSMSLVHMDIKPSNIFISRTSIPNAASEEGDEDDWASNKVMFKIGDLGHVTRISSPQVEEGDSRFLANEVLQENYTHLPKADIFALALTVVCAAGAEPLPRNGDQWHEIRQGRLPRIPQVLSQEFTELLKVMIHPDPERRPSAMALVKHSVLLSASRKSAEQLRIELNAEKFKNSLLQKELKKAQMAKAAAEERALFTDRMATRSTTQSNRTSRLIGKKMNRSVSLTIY

% of inhibition [1]: -38.3% | % of control [2]: -2.3% | % of control [3]: 9.97%
SMILES: Cn1cc(-n2cnc3c(NCc4nc5cc(Cl)c(Cl)cc5[nH]4)nc(N4CCOCC4)nc32)cn1

% of control [4]: 100%
SMILES: CCN(CC)CCCCNc1ncc2cc(-c3cc(OC)cc(OC)c3)c(NC(=O)NC(C)(C)C)nc2n1

% of control [5]: 107%
SMILES: C=CC(=O)Nc1cccc(C(=O)Nc2ccc(Nc3cc(-c4[nH]c(SC)nc4C)ccn3)cc2)c1

SMILES: CN(C)C/C=C/C(=O)Nc1ccc(C(=O)N2CCCC(Nc3ncc(Cl)c(-c4c[nH]c5ccccc45)n3)C2)cc1 (centres undefined)
% of control [6]: 76%

SMILES: Nc1cnc(N2CCc3cc(S(=O)(=O)Nc4c(F)cc(Cl)cc4F)cc(N4CCCC4=O)c32)nc1 [TP-020n]
% of control [7]: 84%

SMILES: CCC(=O)N1CCN(c2ccc(-n3c(=O)ccc4cnc5ccc(-c6cnc7ccccc7c6)cc5c43)cc2C(F)(F)F)CC1
% of control [8]: 63%

SMILES: N#Cc1cccc(-c2c[nH]c3ncnc(N4CCOCC4)c23)c1
% of control [9]: 41%
